{
  "source": "paper PMC8807399",
  "about": "“Synthesis, Characterization, and in vivo Evaluation of a Novel Potent Autotaxin-Inhibitor” (Frontiers in Pharmacology, 2022)",
  "key": {"Estrogen receptor alpha": {"biological_target": "T1, Estrogen receptor alpha (Homo sapiens, UniProt P03372)", "T1 construct": "purchased Eurofins CEREP SA", "T1 sequence (P03372 whole entry)": "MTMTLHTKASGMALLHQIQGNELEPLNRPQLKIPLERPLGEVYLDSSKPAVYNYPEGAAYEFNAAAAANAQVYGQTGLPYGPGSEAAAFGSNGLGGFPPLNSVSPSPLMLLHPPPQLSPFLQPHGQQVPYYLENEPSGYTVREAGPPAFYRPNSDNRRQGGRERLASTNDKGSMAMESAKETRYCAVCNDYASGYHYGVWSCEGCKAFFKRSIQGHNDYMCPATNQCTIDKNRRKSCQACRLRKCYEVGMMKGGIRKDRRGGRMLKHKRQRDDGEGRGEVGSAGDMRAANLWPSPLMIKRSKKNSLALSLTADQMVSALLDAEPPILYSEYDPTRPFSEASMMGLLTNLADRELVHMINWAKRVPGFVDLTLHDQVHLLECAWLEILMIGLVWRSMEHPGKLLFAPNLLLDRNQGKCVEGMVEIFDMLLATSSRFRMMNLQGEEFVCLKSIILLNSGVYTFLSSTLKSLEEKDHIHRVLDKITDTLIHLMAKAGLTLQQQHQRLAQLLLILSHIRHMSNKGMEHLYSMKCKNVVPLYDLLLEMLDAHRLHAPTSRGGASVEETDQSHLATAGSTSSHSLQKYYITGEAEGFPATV", "assay": "Off-target screen Estrogen receptor alpha", "type": "binding", "conditions": "10 µM; single point, duplicates"}, "[1]": {"biological_target": "Glycine receptor (strychnine insensitive) (Rattus norvegicus, UniProt P35439)", "sequence (P35439 394-800)": "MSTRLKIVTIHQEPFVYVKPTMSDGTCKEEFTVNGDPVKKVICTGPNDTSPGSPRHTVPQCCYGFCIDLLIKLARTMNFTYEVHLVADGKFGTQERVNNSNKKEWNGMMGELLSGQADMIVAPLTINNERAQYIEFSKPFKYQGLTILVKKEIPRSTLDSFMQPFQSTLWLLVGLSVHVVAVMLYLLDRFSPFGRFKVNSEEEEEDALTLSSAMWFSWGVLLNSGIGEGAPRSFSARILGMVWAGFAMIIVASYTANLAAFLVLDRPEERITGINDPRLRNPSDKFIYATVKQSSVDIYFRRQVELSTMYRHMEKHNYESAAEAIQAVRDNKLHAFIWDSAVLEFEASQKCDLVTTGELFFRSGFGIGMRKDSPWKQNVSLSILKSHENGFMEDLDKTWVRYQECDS", "assay": "Off-target screen Glycine receptor (strychnine insensitive)", "type": "binding", "conditions": "10 µM; single point, duplicates"}, "[2]": {"system": "GABA-A (benzodiazepine site)", "assay": "Off-target screen GABA-A (benzodiazepine site)", "conditions": "10 µM; single point, duplicates"}, "[3]": {"assay": "Artificial membrane permeability assay", "type": "in vitro ADME", "conditions": "PAMPA, read-out: Permeability Pe", "protocol": "The assay was performed in an automated fashion on 96-well microplates. The permeation of drugs was measured using a “sandwich” construction: A filter-plate was coated with phospholipids (membrane) and placed into a donor compartment containing a compound/buffer solution. Finally, the top of filter-plate was filled with buffer solution (acceptor). Donor concentration was measured at t-start (reference) and compared with the donor and acceptor concentration after a certain time (t-end) to calculate the extent of passage of the compound through the membrane. The main readout of the assay was the permeability value Pe expressed in 10^–6 * cm/s. Secondary readouts determined were the amount of compound in the donor and acceptor compartments as well as the retention in the membrane. Depending on the permeation rate and the membrane retention the compounds were classified as low (Pe < 0.2 and membrane < 20%) or medium and high (Pe ≥ 0.2 or Pe < 0.2 and membrane ≥ 20%). Each sample was measured in triplicate and a standard deviation was determined for the permeation constant Pe."}, "ECE-1": {"biological_target": "T2, ECE-1 (Homo sapiens, UniProt P42892)", "T2 construct": "purchased Eurofins CEREP SA", "T2 sequence (P42892 whole entry)": "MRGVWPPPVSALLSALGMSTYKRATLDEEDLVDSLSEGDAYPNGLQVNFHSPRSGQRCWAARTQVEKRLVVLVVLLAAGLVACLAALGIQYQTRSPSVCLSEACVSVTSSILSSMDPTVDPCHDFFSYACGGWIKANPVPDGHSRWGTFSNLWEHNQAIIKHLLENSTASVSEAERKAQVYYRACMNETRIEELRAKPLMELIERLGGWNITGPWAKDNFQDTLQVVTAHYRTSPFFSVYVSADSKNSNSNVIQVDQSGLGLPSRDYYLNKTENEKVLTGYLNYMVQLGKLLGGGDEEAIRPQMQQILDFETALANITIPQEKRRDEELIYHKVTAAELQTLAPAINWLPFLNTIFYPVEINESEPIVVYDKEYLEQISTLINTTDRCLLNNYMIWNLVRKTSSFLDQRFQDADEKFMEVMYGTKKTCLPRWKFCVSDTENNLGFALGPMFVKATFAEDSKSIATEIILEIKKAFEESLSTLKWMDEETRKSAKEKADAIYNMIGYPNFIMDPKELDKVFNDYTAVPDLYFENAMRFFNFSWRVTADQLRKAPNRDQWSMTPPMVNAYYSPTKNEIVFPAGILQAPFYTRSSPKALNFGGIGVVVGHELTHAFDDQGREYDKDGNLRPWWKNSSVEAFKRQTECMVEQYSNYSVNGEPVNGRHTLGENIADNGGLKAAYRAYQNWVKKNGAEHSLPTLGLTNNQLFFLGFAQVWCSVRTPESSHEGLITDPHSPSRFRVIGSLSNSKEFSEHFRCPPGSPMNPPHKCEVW", "assay": "Off-target screen ECE-1", "type": "biochemical", "conditions": "10 µM; single point, duplicates"}, "Dopamine D1 receptor": {"biological_target": "T3, Dopamine D1 receptor (Homo sapiens, UniProt P21728)", "T3 construct": "purchased Eurofins CEREP SA", "T3 sequence (P21728 whole entry)": "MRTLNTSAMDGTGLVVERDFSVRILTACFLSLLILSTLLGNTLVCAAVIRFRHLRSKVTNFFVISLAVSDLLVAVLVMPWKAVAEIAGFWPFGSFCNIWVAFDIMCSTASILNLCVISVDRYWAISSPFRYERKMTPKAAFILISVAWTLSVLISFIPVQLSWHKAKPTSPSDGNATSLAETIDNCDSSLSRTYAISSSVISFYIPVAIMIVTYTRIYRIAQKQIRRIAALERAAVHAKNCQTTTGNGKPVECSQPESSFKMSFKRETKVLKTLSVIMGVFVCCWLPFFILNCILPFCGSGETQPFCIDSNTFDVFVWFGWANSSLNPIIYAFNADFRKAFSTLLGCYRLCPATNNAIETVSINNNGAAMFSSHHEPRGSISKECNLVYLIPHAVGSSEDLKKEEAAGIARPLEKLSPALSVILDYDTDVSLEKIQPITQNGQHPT", "assay": "Off-target screen Dopamine D1", "type": "binding", "conditions": "10 µM; single point, duplicates"}, "GSK-3A": {"biological_target": "T4, GSK-3A (Homo sapiens, UniProt P49840)", "T4 construct": "purchased Eurofins CEREP SA", "T4 sequence (P49840 whole entry)": "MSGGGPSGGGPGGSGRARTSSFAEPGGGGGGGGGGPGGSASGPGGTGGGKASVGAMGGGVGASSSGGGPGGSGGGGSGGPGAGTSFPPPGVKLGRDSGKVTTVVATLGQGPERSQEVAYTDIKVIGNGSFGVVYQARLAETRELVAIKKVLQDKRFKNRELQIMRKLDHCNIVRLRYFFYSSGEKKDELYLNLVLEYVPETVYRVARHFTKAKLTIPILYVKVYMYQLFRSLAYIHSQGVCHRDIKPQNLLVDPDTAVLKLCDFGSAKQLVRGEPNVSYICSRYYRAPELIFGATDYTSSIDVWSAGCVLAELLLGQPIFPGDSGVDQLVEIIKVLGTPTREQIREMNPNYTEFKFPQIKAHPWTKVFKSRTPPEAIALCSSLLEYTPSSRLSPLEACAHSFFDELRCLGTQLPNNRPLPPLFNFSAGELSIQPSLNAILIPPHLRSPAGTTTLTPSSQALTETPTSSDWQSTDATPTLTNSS", "assay": "Off-target screen GSK-3A", "type": "biochemical", "conditions": "10 µM; single point, duplicates"}, "HDAC4": {"biological_target": "T5, HDAC4 (Homo sapiens, UniProt P56524)", "T5 construct": "purchased Eurofins CEREP SA", "T5 sequence (P56524 whole entry)": "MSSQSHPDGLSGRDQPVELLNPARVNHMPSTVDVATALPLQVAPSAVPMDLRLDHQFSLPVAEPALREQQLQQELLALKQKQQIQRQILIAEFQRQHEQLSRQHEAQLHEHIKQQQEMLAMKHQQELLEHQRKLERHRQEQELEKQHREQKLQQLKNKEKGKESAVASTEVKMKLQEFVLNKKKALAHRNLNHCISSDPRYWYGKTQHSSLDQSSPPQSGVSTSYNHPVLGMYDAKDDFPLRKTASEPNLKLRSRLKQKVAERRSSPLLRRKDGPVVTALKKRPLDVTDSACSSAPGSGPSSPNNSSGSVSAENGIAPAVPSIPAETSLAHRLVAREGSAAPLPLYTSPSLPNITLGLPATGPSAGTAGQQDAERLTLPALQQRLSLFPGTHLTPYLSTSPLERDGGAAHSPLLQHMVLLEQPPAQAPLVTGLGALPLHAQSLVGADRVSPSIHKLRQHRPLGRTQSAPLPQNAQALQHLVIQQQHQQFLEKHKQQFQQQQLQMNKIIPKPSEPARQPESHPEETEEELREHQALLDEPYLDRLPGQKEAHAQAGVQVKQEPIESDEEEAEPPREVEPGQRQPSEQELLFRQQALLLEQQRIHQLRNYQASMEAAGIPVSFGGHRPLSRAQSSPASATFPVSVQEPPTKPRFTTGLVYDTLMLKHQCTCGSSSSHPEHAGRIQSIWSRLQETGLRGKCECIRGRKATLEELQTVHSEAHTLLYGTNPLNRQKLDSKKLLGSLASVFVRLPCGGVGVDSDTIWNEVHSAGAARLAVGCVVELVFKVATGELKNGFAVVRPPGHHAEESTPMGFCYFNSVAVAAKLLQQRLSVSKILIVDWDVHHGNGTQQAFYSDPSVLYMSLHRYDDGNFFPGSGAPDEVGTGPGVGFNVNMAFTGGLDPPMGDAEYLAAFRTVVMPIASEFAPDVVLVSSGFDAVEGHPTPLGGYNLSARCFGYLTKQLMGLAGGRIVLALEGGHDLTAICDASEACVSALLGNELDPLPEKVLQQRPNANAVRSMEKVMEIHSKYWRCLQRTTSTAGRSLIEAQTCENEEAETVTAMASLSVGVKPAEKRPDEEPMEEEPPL", "assay": "Off-target screen HDAC4", "type": "biochemical", "conditions": "10 µM; single point, duplicates"}, "total basal plasma LPA": {"system": "total basal plasma LPA", "assay": "Plasma LPA profile in rat (PK/PD), basal LPA", "type": "in vivo", "protocol": "Plasma samples were collected in triplicates at 0, 1, 3, 6, and 24 h and were added to heparinated tubes and kept at 0°C until further processing. Sampling and immediate processing at 0°C is crucial for the measurements of basal levels, since at higher temperatures, LPA is produced rapidly according to the ATX activity in the sample. One aliquot was used to determine basal levels of LPAs 16:0, 18:0, 18:1, and 20:4 as well as exposure of 13 by LC-MS/MS. A detailed method for LPA analysis is described in the Supplementary Material Section 1.3. The other 2 aliquots were used to determine ATX activity by incubation of the sample at 37°C for 4 h, followed again by analysis of LPA levels in the same way as for the basal LPA levels. LPA profiles were analyzed using MS Excel (Microsoft Corporation).\nTherefore, modulation of total basal LPA was largely driven by modulation of LPA 20:4 (Figure 2A)."}, "5HT3": {"biological_target": "T6, 5HT3 (Homo sapiens, UniProt P46098)", "T6 construct": "purchased Eurofins CEREP SA", "T6 sequence (P46098 24-478)": "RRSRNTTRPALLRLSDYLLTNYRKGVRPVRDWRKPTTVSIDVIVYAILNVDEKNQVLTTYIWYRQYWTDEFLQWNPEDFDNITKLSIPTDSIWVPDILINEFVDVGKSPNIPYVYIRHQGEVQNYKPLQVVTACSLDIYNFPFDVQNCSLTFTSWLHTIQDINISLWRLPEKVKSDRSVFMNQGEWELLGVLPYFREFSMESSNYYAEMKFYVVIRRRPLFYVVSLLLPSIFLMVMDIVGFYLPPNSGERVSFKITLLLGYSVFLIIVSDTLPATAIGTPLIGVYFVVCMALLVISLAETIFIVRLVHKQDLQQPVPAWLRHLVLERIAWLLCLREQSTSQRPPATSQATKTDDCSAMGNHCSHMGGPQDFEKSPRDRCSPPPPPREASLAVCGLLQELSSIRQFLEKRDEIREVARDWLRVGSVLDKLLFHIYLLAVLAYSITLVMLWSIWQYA", "assay": "Off-target screen 5HT3", "type": "binding", "conditions": "10 µM; single point, duplicates"}, "Alpha2A-adrenoreceptor": {"biological_target": "T7, Alpha2A-adrenoreceptor (Homo sapiens, UniProt P08913)", "T7 construct": "purchased Eurofins CEREP SA", "T7 sequence (P08913 whole entry)": "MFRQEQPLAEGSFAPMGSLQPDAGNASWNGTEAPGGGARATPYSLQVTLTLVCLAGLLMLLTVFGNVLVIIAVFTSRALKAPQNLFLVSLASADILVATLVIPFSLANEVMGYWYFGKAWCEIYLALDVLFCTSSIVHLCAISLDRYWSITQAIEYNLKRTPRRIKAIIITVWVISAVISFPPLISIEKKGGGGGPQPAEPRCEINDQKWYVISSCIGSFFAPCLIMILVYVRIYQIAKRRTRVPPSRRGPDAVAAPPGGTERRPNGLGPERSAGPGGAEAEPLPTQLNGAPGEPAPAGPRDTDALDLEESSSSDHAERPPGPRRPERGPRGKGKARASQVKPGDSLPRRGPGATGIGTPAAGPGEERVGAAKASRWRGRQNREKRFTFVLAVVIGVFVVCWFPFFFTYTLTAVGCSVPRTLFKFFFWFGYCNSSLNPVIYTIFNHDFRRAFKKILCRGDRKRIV", "assay": "Off-target screen Alpha2A-adrenoreceptor", "type": "binding", "conditions": "10 µM; single point, duplicates"}},
  "data": [
    {"smiles": "O=C(OCc1ccc(OC(F)(F)F)cc1)N1C[C@@H]2CN(C(=O)c3ccc4[nH]nnc4c3)C[C@H]2C1", "note": "[Compound 13, (3aS,6aS)-5-(1H-Benzotriazole-5-carbonyl)-hexahydro-pyrrolo[3,4-c]pyrrole-2-carboxylic acid 4-trifluoromethoxy-benzyl ester]", "values": [
      {"measurement": "Estrogen receptor alpha (h) [% inhib]", "setting": "Estrogen receptor alpha", "result": -6, "unit": "% inhib"},
      {"measurement": "Glycine receptor (strychnine insensitive) (r) [% inhib]", "setting": "[1]", "result": 17, "unit": "% inhib"},
      {"measurement": "GABA-A (benzodiazepine site) (r) [% inhib]", "setting": "[2]", "result": -26, "unit": "% inhib"},
      {"measurement": "Papp", "setting": "[3]", "result": 4.5, "unit": "×10⁻⁶ cm/s"},
      {"measurement": "ECE-1 (h) [% inhib]", "setting": "ECE-1", "result": 16, "unit": "% inhib"},
      {"measurement": "Dopamine D1 receptor (h) [% inhib]", "setting": "Dopamine D1 receptor", "result": 0, "unit": "% inhib"},
      {"measurement": "GSK-3A (h) [% inhib]", "setting": "GSK-3A", "result": -11, "unit": "% inhib"},
      {"measurement": "HDAC4 (h) [% inhib]", "setting": "HDAC4", "result": 3, "unit": "% inhib"},
      {"measurement": "IC50", "setting": "total basal plasma LPA; Rattus norvegicus, free plasma concentration, male Wistar rats, 3, 10, 30 mg/kg po, sum of LPA 16:0, 18:0, 18:1, 20:4, read-out: IC50 for the lowering of total basal LPA", "result": "~3.2", "unit": "ng/mL"},
      {"measurement": "Estimated average ATX inhibition", "setting": "total basal plasma LPA; rat, food admix 20 mg/kg, 2-weeks study at steady state, estimated from PK/PD relationship", "result": "> 75", "unit": "%"},
      {"measurement": "5HT3 (h) [% inhib]", "setting": "5HT3", "result": -2, "unit": "% inhib"},
      {"measurement": "Alpha2A-adrenoreceptor (h) [% inhib]", "setting": "Alpha2A-adrenoreceptor", "result": 3, "unit": "% inhib"}
    ]}
  ]
}
